The structures appear in SMILES notation.

Series [1] has as its target T1, C-X-C chemokine receptor type 4 (Homo sapiens, UniProt P61073). Description: Antagonist activity at human CXCR4 in CCRF-CEM cells assessed as decrease in SDF-1alpha stimulated Ca2+ flux preincubated for 25 mins followed by SDF-1alpha addition measured for 90 secs by calcium dye-based fluorescence assay. It is filed as functional, cell-based.
Series [2] is described as follows: Antagonist activity at mAChR in human CCRF-CEM cells assessed as decrease in acetylacholine-stimulated Ca2+ flux preincubated for 25 mins followed by acetylacholine addition measured for 90 secs by calcium dye-based fluorescence assay. Format: cell-based.
Series [3] in a line: Permeability of the compound at pH 7.4 at 100 uM after 4 hrs by PAMPA.
Series [4] can be described thus: Permeability of the compound at pH 5.5 at 100 uM after 4 hrs by PAMPA.
The next series has as its target Cytochrome P450 2D6 (Homo sapiens, UniProt P10635). Description: Inhibition of recombinant human CYP2D6 expressed in microsomes of insect cells using AMMC as substrate preincubated for 30 mins followed by NADP addition after 45 mins by fluorescence analysis.
Series [5] in a line: Inhibition of CYP1A4 (unknown origin).
For another series, the target named is Cytochrome P450 2C19 (Homo sapiens, UniProt P33261). Description: Inhibition of CYP2C19 (unknown origin).
The target of a further series is T2, Cytochrome P450 2C8 (Homo sapiens, UniProt P10632).
T2 sequence (P10632 whole entry): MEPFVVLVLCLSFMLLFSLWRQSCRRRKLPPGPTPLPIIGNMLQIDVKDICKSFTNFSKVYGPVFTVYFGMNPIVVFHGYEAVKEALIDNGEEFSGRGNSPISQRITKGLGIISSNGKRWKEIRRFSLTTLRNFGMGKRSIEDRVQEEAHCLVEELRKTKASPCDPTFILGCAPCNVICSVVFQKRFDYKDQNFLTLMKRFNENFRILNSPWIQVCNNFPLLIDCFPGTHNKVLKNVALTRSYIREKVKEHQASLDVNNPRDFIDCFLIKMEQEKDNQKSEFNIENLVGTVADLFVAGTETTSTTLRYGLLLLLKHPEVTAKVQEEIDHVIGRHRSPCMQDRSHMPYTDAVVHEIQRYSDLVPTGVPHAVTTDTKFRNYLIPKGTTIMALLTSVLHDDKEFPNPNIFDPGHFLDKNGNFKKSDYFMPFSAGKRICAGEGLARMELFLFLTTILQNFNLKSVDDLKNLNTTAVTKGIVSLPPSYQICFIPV
Description: Inhibition of CYP2C8 (unknown origin).

In another series the target is Cytochrome P450 2C9 (Homo sapiens, UniProt P11712). As to the kind of experiment: Inhibition of CYP2C9 (unknown origin).
Series [6] can be described thus: Metabolic stability in human liver microsomes assessed as parent compound remaining at 0.5 uM after 10 mins in presence of NADPH by LC-MS/MS analysis.
The nature of series [7]: Metabolic stability in mouse liver microsomes assessed as parent compound remaining at 0.5 uM after 10 mins in presence of NADPH by LC-MS/MS analysis.
The target in series [8] is T1, C-X-C chemokine receptor type 4. As to the kind of experiment: Agonist activity at CXCR4 in human CCRF-CEM cells assessed as induction of Ca2+ flux measured for 90 secs by calcium dye-based fluorescence assay. It is filed as functional, cell-based.
Series [9] in a line: Agonist activity at mAChR in human CCRF-CEM cells assessed as induction of Ca2+ flux measured for 90 secs by calcium dye-based fluorescence assay. Format: cell-based.
Series [10] deals with C-X-C chemokine receptor type 4 (Mus musculus, UniProt P70658). As to the kind of experiment: Antagonist activity at mouse CXCR4.
A further series concerns the target Cytochrome P450 3A4 (Homo sapiens, UniProt P08684). As to the kind of experiment: Inhibition of CYP3A4 (unknown origin).
Series [11] can be described thus: Half life in human liver microsomes. Format: ADME, microsome.
Series [12] can be described thus: Half life in rat Plasma. It is filed as ADME, cell-free.
A further series is filed under the species Homo sapiens. As to the kind of experiment: Inhibition of chemokine receptor (unknown origin) at 10 uM.

Chain of Cytochrome P450 2C9 (P11712 whole entry): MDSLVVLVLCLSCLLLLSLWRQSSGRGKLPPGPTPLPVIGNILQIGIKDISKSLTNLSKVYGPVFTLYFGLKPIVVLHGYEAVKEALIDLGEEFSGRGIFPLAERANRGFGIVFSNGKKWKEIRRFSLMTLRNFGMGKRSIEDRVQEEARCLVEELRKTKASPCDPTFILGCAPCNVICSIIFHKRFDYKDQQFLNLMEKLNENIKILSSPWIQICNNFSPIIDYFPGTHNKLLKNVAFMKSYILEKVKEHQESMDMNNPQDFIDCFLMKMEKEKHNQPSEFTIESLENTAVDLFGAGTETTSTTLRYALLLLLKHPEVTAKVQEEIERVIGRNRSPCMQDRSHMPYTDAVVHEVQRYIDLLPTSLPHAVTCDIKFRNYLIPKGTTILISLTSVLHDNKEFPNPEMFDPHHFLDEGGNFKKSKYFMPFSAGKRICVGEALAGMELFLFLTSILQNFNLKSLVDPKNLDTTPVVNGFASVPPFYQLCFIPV
Chain of Cytochrome P450 2D6 (P10635 whole entry): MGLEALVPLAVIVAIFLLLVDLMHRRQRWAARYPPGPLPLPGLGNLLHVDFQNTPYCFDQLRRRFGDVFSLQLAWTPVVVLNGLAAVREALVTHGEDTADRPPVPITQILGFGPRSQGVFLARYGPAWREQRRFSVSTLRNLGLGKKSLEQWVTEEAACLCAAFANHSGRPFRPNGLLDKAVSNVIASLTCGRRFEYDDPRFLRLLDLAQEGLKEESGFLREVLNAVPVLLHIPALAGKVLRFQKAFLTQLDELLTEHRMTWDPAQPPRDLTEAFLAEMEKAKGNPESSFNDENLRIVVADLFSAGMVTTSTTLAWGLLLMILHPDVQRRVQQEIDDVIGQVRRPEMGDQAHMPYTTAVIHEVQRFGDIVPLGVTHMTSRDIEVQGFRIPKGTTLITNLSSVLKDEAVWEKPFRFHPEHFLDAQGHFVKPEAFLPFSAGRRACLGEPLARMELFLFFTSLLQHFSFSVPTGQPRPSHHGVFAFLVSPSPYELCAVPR
T1 sequence (P61073 whole entry): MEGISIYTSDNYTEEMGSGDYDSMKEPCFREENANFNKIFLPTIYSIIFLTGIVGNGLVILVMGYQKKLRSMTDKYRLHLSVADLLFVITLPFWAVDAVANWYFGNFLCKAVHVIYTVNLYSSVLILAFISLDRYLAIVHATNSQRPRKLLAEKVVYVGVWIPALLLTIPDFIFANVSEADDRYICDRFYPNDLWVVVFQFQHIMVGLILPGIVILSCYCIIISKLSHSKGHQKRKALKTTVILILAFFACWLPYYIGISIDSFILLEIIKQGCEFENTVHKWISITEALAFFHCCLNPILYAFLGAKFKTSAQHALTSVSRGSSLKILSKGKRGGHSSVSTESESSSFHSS
Chain of Cytochrome P450 2C19 (P33261 whole entry): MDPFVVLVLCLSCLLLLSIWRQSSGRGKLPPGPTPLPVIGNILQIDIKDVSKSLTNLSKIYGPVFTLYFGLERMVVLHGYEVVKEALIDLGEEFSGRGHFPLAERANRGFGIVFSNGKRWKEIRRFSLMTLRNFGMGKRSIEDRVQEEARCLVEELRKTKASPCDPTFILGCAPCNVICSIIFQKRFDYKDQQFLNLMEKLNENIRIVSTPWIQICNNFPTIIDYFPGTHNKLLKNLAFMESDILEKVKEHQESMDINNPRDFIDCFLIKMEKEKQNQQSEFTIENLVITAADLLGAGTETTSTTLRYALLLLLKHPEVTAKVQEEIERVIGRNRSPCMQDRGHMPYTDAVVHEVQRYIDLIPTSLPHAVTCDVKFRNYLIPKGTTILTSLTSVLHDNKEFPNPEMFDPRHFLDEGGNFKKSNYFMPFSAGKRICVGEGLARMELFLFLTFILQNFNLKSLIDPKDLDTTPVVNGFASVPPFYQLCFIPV
Chain of C-X-C chemokine receptor type 4 (Mus musculus, UniProt P70658) (P70658 whole entry): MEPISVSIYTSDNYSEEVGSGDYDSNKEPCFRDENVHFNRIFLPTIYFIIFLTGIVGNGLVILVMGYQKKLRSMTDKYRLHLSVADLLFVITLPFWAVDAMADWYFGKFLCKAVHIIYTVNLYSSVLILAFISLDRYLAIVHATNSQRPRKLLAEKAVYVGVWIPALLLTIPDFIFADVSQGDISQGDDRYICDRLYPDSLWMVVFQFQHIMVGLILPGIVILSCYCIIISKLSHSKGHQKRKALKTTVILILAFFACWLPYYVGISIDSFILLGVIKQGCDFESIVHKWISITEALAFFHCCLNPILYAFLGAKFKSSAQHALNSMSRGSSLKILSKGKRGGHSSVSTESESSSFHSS
Chain of Cytochrome P450 3A4 (P08684 whole entry): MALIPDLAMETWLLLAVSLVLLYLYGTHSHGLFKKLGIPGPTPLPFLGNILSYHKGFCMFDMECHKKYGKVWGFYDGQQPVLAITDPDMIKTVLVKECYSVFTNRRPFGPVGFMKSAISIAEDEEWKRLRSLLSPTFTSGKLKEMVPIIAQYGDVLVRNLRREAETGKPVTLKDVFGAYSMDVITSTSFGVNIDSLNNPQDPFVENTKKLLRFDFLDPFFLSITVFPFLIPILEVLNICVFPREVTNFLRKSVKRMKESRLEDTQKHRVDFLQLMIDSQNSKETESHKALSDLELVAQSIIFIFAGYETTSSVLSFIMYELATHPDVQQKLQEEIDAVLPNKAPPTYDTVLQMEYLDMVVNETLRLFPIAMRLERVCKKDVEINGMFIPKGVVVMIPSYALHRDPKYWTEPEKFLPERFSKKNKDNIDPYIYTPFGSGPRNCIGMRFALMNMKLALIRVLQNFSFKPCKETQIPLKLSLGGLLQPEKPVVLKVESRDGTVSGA

`C(=C\CN(C[C@H]1Cc2ccccc2CN1)[C@H]1CCCc2cccnc21)/CNCC1CCOCC1`: in series [1], the IC90 was determined as 0.195 µM. Also, the IC50 in [2] was 19.9 µM; at Cytochrome P450 2D6 it was 3.32 µM; in [5], less than 5 µM; on Cytochrome P450 2C19 it was less than 5 µM; on Cytochrome P450 2C8, less than 5 µM; at Cytochrome P450 2C9, less than 5 µM. The molecule also gave an IC50 in series [10] of 0.00547 µM. Besides, the results for the Papp at 4 h, 100 µM in series [3] and in series [4] were 12.2 ×10⁻⁶ cm/s and 3.35 ×10⁻⁶ cm/s, respectively. Further, the amount remaining at 10 min, 0.5 µM in series [6] came to 74.5%; in [7] it was 32.3%. Moreover, the EC50 in series [8] and in series [9] was more than 30 µM each time.
On to `CC1(C)CCC(NCC(C)(C)CCN(C[C@H]2Cc3ccccc3CN2)[C@H]2CCCc3cccnc32)CC1`, for which the IC50 was 0.541 µM in series [1]; 18.8 µM in series [2]; 2.22 µM at Cytochrome P450 2D6; 7.83 µM against Cytochrome P450 3A4; less than 5 µM in series [5]; less than 5 µM against Cytochrome P450 2C19. Moreover, the IC50 against Cytochrome P450 2C8 and on Cytochrome P450 2C9 was less than 5 µM throughout. The figures for the Papp at 4 h, 100 µM in series [3] and in [4] were 2.8 ×10⁻⁶ cm/s and 1.1 ×10⁻⁶ cm/s, respectively. Further, the fraction remaining at 10 min, 0.5 µM came out at 23.9% in [6] and 51.1% in series [7]. Further, the EC50 in series [8] and in [9] was more than 30 µM throughout.
Turning to `CC(C)(CCN(C[C@H]1Cc2ccccc2CN1)[C@H]1CCCc2cccnc21)CNC1CCC(F)(F)CC1`, the IC50 in series [1] is 0.168 µM; in series [2], 18.8 µM; on Cytochrome P450 2D6 it was 2.04 µM; in [5], less than 5 µM; against Cytochrome P450 2C19 it was less than 5 µM; against Cytochrome P450 2C8, less than 5 µM. The molecule also displayed an IC50 on Cytochrome P450 2C9 of less than 5 µM. Besides, the Papp at 4 h, 100 µM in series [3] stood at 2.2 ×10⁻⁶ cm/s; in [4] it was 1.75 ×10⁻⁶ cm/s. Besides, the share remaining at 10 min, 0.5 µM stood at 16.1% in [6] and 16.8% in series [7]. Also, the 50% effective concentration (EC50) in series [8] and in [9] was more than 30 µM throughout.
For the molecule `CC(C)(CCN(C[C@H]1Cc2ccccc2CN1)[C@H]1CCCc2cccnc21)CNC1CCOCC1`, the IC50 was 0.0363 µM in series [1]; 11.5 µM in series [2]; 6.21 µM on Cytochrome P450 2D6; 17.7 µM against Cytochrome P450 3A4; less than 5 µM in series [5]; less than 5 µM on Cytochrome P450 2C19. In addition, the values for the IC50 (on Cytochrome P450 2C8; at Cytochrome P450 2C9; in [10]) were less than 5 µM, less than 5 µM and 0.02 µM, respectively. Further, in series [1], the 90% effect concentration (IC90) came to 0.416 µM. The Papp at 4 h, 100 µM in [3] and in series [4] was 5.7 ×10⁻⁶ cm/s in each case. The fraction remaining at 10 min, 0.5 µM in series [6] amounted to 21.8%; in [7], 49.8%. Also, the EC50 in series [8] and in series [9] was more than 30 µM throughout.
In the case of `NCCCCN(C[C@H]1Cc2ccccc2CN1)[C@H]1CCCc2cccnc21`, the concentration for an effect of 90% (IC90) in series [1] was found to be 0.0326 µM. The IC50 in [2] is more than 30 µM. The molecule further came in with a Papp at 4 h, 100 µM in [4] of 0.6 ×10⁻⁶ cm/s. Moreover, the EC50 in series [9] is more than 30 µM. Also, the half-life is 1 h in series [11] and 6 h in [12]. Besides, the inhibition in the series filed under Homo sapiens is less than 10%.
For `C(=C\CN(C[C@H]1Cc2ccccc2CN1)[C@H]1CCCc2cccnc21)/CNC1CCOCC1`, the IC90 in [1] was determined as 0.191 µM. In addition, the IC50 was 5.61 µM in series [2]; 2.61 µM at Cytochrome P450 2D6; less than 5 µM in series [5]; less than 5 µM against Cytochrome P450 2C19; less than 5 µM on Cytochrome P450 2C8; less than 5 µM at Cytochrome P450 2C9. Besides, 0.00924 µM corresponded to half-maximal inhibition in series [10] (IC50). The apparent permeability (Papp) at 4 h, 100 µM in [3] was determined as 43.4 ×10⁻⁶ cm/s; in [4], 10.5 ×10⁻⁶ cm/s. Also, the fraction remaining at 10 min, 0.5 µM in series [6] is 69.9%; in series [7] it was 10%. Also, the EC50 in series [8] and in [9] was more than 30 µM throughout.

(Values after ChEMBL document CHEMBL4052827, “Discovery of Tetrahydroisoquinoline-Containing CXCR4 Antagonists with Improved in Vitro ADMET Properties” (J Med Chem, 2018).)
